Assay results from article PMC3981466 (Bioorganic & medicinal chemistry letters, 2013).
Like-named read-outs stand apart in the source and are kept apart here.

Columns and labels:
[1] = target: E. coli SPase (Escherichia coli, UniProt P00803); assay: Biochemical activity
[2] = target: S. aureus SPase (Staphylococcus aureus, UniProt P0A070); assay: Biochemical activity
[3] = tested on: S. aureus (MSSA) strain 8325; settings: wild type MSSA strain 8325; included for reference; cited from earlier work
[4] = tested on: methicillin resistant S. aureus (MRSA) strain USA300; settings: included for reference, cited from earlier work
[5] = tested on: E. coli (MG1655); settings: wild type MG1655; included for reference; cited from earlier work

Chain of E. coli SPase (P00803 whole entry): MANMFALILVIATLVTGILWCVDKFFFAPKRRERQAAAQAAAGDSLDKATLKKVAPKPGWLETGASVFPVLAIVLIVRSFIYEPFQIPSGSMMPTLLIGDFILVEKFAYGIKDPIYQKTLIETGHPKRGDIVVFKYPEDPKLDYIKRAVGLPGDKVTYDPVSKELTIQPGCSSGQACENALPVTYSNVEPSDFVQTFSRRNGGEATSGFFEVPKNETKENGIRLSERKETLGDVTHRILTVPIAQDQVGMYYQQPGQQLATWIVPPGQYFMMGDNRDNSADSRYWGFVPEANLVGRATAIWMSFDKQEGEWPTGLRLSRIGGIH
Chain of S. aureus SPase (P0A070 whole entry): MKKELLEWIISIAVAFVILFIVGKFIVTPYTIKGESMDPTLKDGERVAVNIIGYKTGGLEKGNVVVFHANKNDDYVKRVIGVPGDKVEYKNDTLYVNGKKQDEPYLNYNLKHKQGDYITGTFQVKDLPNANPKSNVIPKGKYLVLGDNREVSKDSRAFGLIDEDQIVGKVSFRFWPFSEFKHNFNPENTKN

Q: For `CCCCCCCCCCCCCCCC(=O)N(C)[C@H](CO)C(=O)N[C@H](C)C(=O)NCC(=O)N(C)[C@@H]1C(=O)N[C@@H](C)C(=O)N[C@H](C(=O)O)Cc2ccc(O)c(c2)-c2cc1ccc2OCCO` [Compound 11], which “IC50 difference relative to arylomycin A-C16” value [1] is on record?
A: ≤ 2 fold

Q: And the “IC50 difference relative to arylomycin A-C16” value [2]?
A: ≤ 2 fold

Q: For `CCCCCCCCCCCCCCCC(=O)N(C)[C@H](CO)C(=O)N[C@H](C)C(=O)NCC(=O)N(C)[C@@H]1C(=O)N[C@@H](C)C(=O)N[C@H](C(=O)NCC=O)Cc2ccc(O)c(c2)-c2cc1ccc2OP(=O)(OCc1ccccc1)OCc1ccccc1` [Compound 8], which “lower affinity on the glycyl aldehyde backbone” value ([1]; Hpg modification on glycyl aldehyde scaffold (of 5)) is on record?
A: 15 fold

Q: What does the source list for `CCCCCCCCCCCCCCCC(=O)N(C)[C@H](CO)C(=O)N[C@H](C)C(=O)NCC(=O)N(C)[C@@H]1C(=O)N[C@@H](C)C(=O)N[C@H](C(=O)NCP(=O)(O)O)Cc2ccc(O)c(c2)-c2cc1ccc2O` [Compound 1]?
A: loss of activity relative to parent arylomycin A-C16 [1]: ~ 10 fold; loss of activity relative to parent arylomycin A-C16 [2]: ~ 10 fold

Q: Which “change of affinity/activity relative to parent, in words” value [1] does the source give for `CCCCCCCCCCCCCCCC(=O)N(C)[C@H](CO)C(=O)N[C@H](C)C(=O)NCC(=O)N(C)[C@@H]1C(=O)N[C@@H](C)C(=O)N[C@H](CC(=O)NCC=O)Cc2ccc(O)c(c2)-c2cc1ccc2O` [Compound 6] here?
A: lost virtually all activity

Q: And the “change of affinity/activity relative to parent, in words” value [2]?
A: lost virtually all activity

Q: For `CCCCCCCCCCCCCCCC(=O)N(C)[C@H](CO)C(=O)N[C@H](C)C(=O)NCC(=O)N(C)[C@@H]1C(=O)N[C@@H](C)C(=O)N[C@H](C(=O)NCC=O)Cc2ccc(O)c(c2)-c2cc1ccc2O` [Compound 5], which “more potent than arylomycin A-C16” value [1] is on record?
A: 5 fold

Q: And the “more potent than arylomycin A-C16” value [2]?
A: 40 fold

Q: What does the source list for `CCCCCCCCCCCCCCCC(=O)N(C)[C@H](CO)C(=O)N[C@H](C)C(=O)NCC(=O)N(C)[C@@H]1C(=O)N[C@@H](C)C(=O)N[C@H](C(=O)O)Cc2ccc(O)c(c2)-c2cc1ccc2O` [arylomycin A-C16]?
A: MIC S. aureus [3]: >64 µg/mL; MIC MRSA ([4]; listed as A-C16): >64 µg/mL; MIC MRSA [4]: no detectable activity; MIC E. coli [5]: >64 µg/mL

Q: Which “IC50 difference relative to arylomycin A-C16” value [1] does the source give for `CCCCCCCCCCCCCCCC(=O)N(C)[C@H](CO)C(=O)N[C@H](C)C(=O)NCC(=O)N(C)[C@@H]1C(=O)N[C@@H](C)C(=O)N[C@H](C(=O)O)Cc2ccc(O)c(c2)-c2cc1ccc2OP(=O)(O)O` [Compound 7] here?
A: ≤ 2 fold

Q: And the “IC50 difference relative to arylomycin A-C16” value [2]?
A: ≤ 2 fold

Q: With `CCCCCCCCCCCCCCCC(=O)N(C)[C@H](CO)C(=O)N[C@H](C)C(=O)NCC(=O)N(C)[C@@H]1C(=O)N[C@@H](C)C(=O)N[C@H](C(=O)O)Cc2ccc(O)c(c2)-c2cc1ccc2OCCN` [Compound 9] as the compound, how does the “IC50 difference relative to arylomycin A-C16” value [1] read?
A: ≤ 2 fold

Q: What about the “IC50 difference relative to arylomycin A-C16” value [2] of the same compound?
A: ≤ 2 fold

Q: For `CCCCCCCCCCCCCCCC(=O)N(C)[C@H](CO)C(=O)N[C@H](C)C(=O)NCC(=O)N(C)[C@@H]1C(=O)N[C@@H](C)C(=O)N[C@H](C(=O)NCP(=O)(Oc2ccccc2)Oc2ccccc2)Cc2ccc(O)c(c2)-c2cc1ccc2O` [Compound 4], which “change of affinity/activity relative to parent, in words” value [1] is on record?
A: lost virtually all affinity

Q: What about the “change of affinity/activity relative to parent, in words” value [2] of the same compound?
A: lost virtually all affinity
